The text below walks through data of patent US20260035340A1, “INHIBITORS OF AKR1C3 AND METHODS OF USE” (BOARD OF REGENTS OF THE UNIVERSITY OF NEBRASKA, priority 2022, published 2026).

Read-outs that look alike come from different tables or passages of the source.

Common to all, as to type: biochemical
One assay concerns the target AKR1C3 (Homo sapiens (Human), UniProt P42330). Briefly: AKR enzyme inhibition assay, NADP+ dependent oxidation of S-tetralol, AKR1C3. To be noted: for Selectivity 1C2:1C3: ratio of AKR1C2 to AKR1C3 IC50; for selectivity over AKR1C2: AKR1C3 over AKR1C2.
For a further assay, the target named is AKR1C4 (Homo sapiens (Human), UniProt P17516). Briefly: AKR enzyme inhibition assay, AKR1C4. As to conditions: Table 2; recombinant enzyme; read-out: IC50 ± SD AKR1C4.
AKR1C4, sequence (P17516 whole entry): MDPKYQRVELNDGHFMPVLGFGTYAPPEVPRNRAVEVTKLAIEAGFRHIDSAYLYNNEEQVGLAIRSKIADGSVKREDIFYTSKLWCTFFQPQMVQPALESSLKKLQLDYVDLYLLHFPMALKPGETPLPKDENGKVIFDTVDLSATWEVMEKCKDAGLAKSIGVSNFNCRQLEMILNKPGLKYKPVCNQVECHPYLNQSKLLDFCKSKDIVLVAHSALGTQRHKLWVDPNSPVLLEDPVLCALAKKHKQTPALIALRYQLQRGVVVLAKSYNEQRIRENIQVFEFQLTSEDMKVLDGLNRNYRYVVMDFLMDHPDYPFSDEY
Another assay addresses AKR1C1 (Homo sapiens (Human), UniProt Q04828). Briefly: AKR enzyme inhibition assay, NADP+ dependent oxidation of S-tetralol, AKR1C1. As to conditions: Table 2; recombinant enzyme, S-tetralol at Km; read-out: IC50 ± SD AKR1C1.
Another assay concerns the target AKR1C2 (Homo sapiens (Human), UniProt P52895). Briefly: AKR enzyme inhibition assay, NADP+ dependent oxidation of S-tetralol, AKR1C2 counter-screen. To be noted: Table 2; recombinant enzyme, S-tetralol at Km; read-out: IC50 ± SD AKR1C2. Background: The purpose of a counterscreen is to sort out artefacts and off-target activity.
[1] abbreviates: Table 2, recombinant enzyme, S-tetralol at Km, read-out: IC50 ± SD AKR1C3.

AKR1C2, sequence (P52895 whole entry): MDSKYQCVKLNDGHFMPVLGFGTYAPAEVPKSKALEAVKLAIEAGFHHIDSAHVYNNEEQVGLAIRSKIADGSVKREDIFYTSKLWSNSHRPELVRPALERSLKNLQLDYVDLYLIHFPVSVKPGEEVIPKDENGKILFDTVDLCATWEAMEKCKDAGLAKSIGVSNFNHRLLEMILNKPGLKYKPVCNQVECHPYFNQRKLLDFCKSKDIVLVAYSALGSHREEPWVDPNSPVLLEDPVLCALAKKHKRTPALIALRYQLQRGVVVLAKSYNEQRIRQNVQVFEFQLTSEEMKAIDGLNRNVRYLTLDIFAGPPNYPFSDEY
AKR1C3, sequence (P42330 whole entry): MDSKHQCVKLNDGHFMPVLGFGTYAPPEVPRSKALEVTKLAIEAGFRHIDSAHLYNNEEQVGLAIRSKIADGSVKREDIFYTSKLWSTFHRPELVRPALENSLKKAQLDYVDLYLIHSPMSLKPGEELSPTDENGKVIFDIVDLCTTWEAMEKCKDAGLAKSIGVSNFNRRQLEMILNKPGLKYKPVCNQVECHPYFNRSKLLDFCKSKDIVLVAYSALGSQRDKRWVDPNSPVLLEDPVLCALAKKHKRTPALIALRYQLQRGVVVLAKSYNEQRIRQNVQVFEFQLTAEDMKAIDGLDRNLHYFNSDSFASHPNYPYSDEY
AKR1C1, sequence (Q04828 whole entry): as the sequence (P52895 whole entry) above, with V38T, H47R, V54L, S87C, M151V, H170R, L172Q counted along it
Description for AKR1C1: (§1) Assay of enzyme activity: The dehydrogenase activities of AKR1C1, AKR1C2, and AKR1C3 were determined by measuring the formation of NADH formation at 340 nm using Beckman DU640 spectrophotometer. […] After continuously monitoring for 5 min, the increase in UV absorption using different concentrations of enzyme were recorded to calculate the initial velocity and determine enzyme specific activity. IC50 value determination: The inhibitory potency for each compound was represented by IC50 value and measured as described before. […] The concentration of S-tetralol used in the assays for each AKR1C isoform was equal to the Km value for the respective enzyme so that IC50 values could be directly compared assuming a competitive pattern of inhibition. […] In this equation, “range” is the fitted uninhibited value minus the “background”, and “S” is a slope factor. “I” is the concentration of inhibitor. The equation assumes that y falls with increasing “I”.
Description for AKR1C2: (§2) Structure-Activity Relationship: The ability of compounds to inhibit AKR1C3 in the first instance were determined by measuring the NADP+ dependent oxidation of S-tetralol catalyzed by recombinant enzyme as described herein. […] Assay of enzyme activity: The dehydrogenase activities of AKR1C1, AKR1C2, and AKR1C3 were determined by measuring the formation of NADH formation at 340 nm using Beckman DU640 spectrophotometer. […] After continuously monitoring for 5 min, the increase in UV absorption using different concentrations of enzyme were recorded to calculate the initial velocity and determine enzyme specific activity. IC50 value determination: The inhibitory potency for each compound was represented by IC50 value and measured as described before. […] The concentration of S-tetralol used in the assays for each AKR1C isoform was equal to the Km value for the respective enzyme so that IC50 values could be directly compared assuming a competitive pattern of inhibition. […] In this equation, “range” is the fitted uninhibited value minus the “background”, and “S” is a slope factor. “I” is the concentration of inhibitor. The equation assumes that y falls with increasing “I”.
Description for AKR1C3: as §2
Description for AKR1C4: as §1

Usually IC50 stands for the concentration that gives 50% inhibition. With `Cc1ccc(CNC(=O)c2cc(/C=C/C(=O)O)cc(-c3ccccc3F)c2)cc1` [Compound A1-e, (E)-3-(2′-Fluoro-5-((4-methylbenzyl)carbamoyl)-[1,1′-biphenyl]-3-yl)acrylic acid], the “Selectivity 1C2:1C3” value at AKR1C3 (Table 2) is more than 1430. In addition, the IC50 was 0.07 ± 0.009 µM at AKR1C3 (setting [1]), 15.4 ± 1.7 µM on AKR1C4, more than 100 µM on AKR1C1 and more than 100 µM at AKR1C2.
Regarding `Cc1ccc(CNC(=O)c2cc(/C=C/C(=O)O)cc(-c3cccc(F)c3)c2)cc1` [Compound A1-f, (E)-3-(3′-Fluoro-5-((4-methylbenzyl)carbamoyl)-[1,1′-biphenyl]-3-yl)acrylic acid], at AKR1C3, the “selectivity over AKR1C2” value was determined as 960 fold. Further, the IC50 on AKR1C3 (setting [1]) was 0.05 ± 0.004 µM; on AKR1C4 it was 16.4 ± 2 µM; at AKR1C1 it was more than 100 µM; at AKR1C2 it was 48 ± 16 µM.
As to `Cc1ccc(CNC(=O)c2cc(/C=C/C(=O)O)cc(-c3ccc(C)cc3)c2)cc1` [Compound A1-i, (E)-3-(4′-Methyl-5-((4-methylbenzyl)carbamoyl)-[1,1′-biphenyl]-3-yl)acrylic acid], the “Selectivity 1C2:1C3” value on AKR1C3 (Table 2) was 160. Further, the IC50 at AKR1C3 (setting [1]) came out at 0.1 ± 0.008 µM; on AKR1C4, 10 ± 1.72 µM; at AKR1C1 it was 66 ± 17 µM; on AKR1C2, 16 ± 3.9 µM.
Consider `Cc1ccc(CNC(=O)c2cc(/C=C/C(=O)O)cc(-c3ccc4ccccc4c3)c2)cc1` [Compound A1-o, (E)-3-(3-((4-Methylbenzyl)carbamoyl)-5-(naphthalen-2-yl)phenyl)acrylic acid], for which the “selectivity over AKR1C2” value on AKR1C3 is reported as 140 fold. Further, the IC50 on AKR1C3 (read-out: IC50 AKR1C3) came out at 0.1 µM; at AKR1C4, 6.1 ± 0.47 µM; on AKR1C1 it was 78 ± 9.3 µM; on AKR1C2, 14 ± 4.1 µM.
As to `Cc1ccc(CNC(=O)c2cc(/C=C/C(=O)O)cc(-c3ccc4cccnc4c3)c2)cc1` [Compound A1-p, (E)-3-(3-((4-Methylbenzyl)carbamoyl)-5-(quinolin-7-yl)phenyl)acrylic acid], the “Selectivity 1C2:1C3” value on AKR1C3 (Table 2) turned out to be 109. Also, the IC50 on AKR1C3 (setting [1]) worked out at 0.11 ± 0.017 µM; at AKR1C4, 22 ± 2.3 µM; on AKR1C1, 80 ± 13 µM; on AKR1C2 it was 12 ± 2.8 µM.
On to `Cc1ccc(CNC(=O)c2cc(/C=C/C(=O)O)cc(-c3ccc4nccnc4c3)c2)cc1` [Compound A1-q, (E)-3-(3-((4-Methylbenzyl)carbamoyl)-5-(quinoxalin-6-yl)phenyl)acrylic acid], for which the “Selectivity 1C2:1C3” value on AKR1C3 (Table 2) worked out at 133. The IC50 on AKR1C3 (read-out: IC50 AKR1C3) is 0.094 µM; on AKR1C4 it was 31 ± 2.9 µM; at AKR1C1 it was 70 ± 48 µM; at AKR1C2, 12.5 ± 2.1 µM.
Turning to `Cc1ccc(CNC(=O)c2cc(/C=C/C(=O)O)cc(-c3ccc4c(c3)OCCO4)c2)cc1` [Compound A1-s, (E)-3-(3-(2,3-Dihydrobenzo[b][1,4]dioxin-6-yl)-5-((4-methylbenzyl)carbamoyl)phenyl)acrylic acid], the “selectivity over AKR1C2” value at AKR1C3 is listed as 200 fold. In addition, the IC50 is 0.11 ± 0.011 µM on AKR1C3 (setting [1]), 53 ± 7.1 µM at AKR1C4, more than 100 µM on AKR1C1 and 22 ± 4.5 µM on AKR1C2.
With `Cc1ccc(CNC(=O)c2cc(/C=C/C(=O)O)cc(-c3ccc4c(c3)OCO4)c2)cc1` [Compound A1-t, (E)-3-(3-(Benzo[d][1,3]dioxol-5-yl)-5-((4-methylbenzyl)carbamoyl)phenyl)acrylic acid], the IC50 is 0.11 µM at AKR1C3 (read-out: IC50 AKR1C3), 16 ± 1.6 µM on AKR1C4, more than 100 µM on AKR1C1 and 36 ± 9.7 µM on AKR1C2.
With `Cc1ccc(CNC(=O)c2cc(/C=C/C(=O)O)cc(-c3ccc(-n4c5ccccc5c5ccccc54)cc3)c2)cc1` [Compound A1-v, (E)-3-(4′-(9H-Carbazol-9-yl)-5-((4-methylbenzyl)carbamoyl)-[1,1′-biphenyl]-3-yl)acrylic acid], the “selectivity over AKR1C2” value on AKR1C3 is reported as 221 fold. For the same compound, the IC50 amounted to 0.14 ± 0.015 µM at AKR1C3 (setting [1]), 11 ± 3.1 µM on AKR1C4, 36 ± 5.5 µM on AKR1C1 and 31 ± 2.8 µM on AKR1C2.
As for `C/C=C/Cc1cc(/C=C/C(=O)O)cc(C(=O)NCc2ccc(C)cc2)c1` [Compound A1-z, (E)-3-(3-((E)-But-2-en-1-yl)-5-((4-methylbenzyl)carbamoyl)phenyl)acrylic acid], the “selectivity over AKR1C2” value at AKR1C3 is listed as 354 fold. Moreover, the IC50 at AKR1C3 (read-out: IC50 AKR1C3) is 0.11 µM; on AKR1C4, 70 ± 11 µM; on AKR1C1, more than 100 µM; on AKR1C2, 39 ± 9 µM.
